Experimental data from patent US5514561A, “Fluorogenic and chromogenic β-lactamase substrates” (priority 1994, dated 1996).

What was measured:
Assay type in all cases: biochemical
[1] = biological target: 238(SER) mutant β-lactamase (Escherichia coli, UniProt P62593, G236S); assay: Kinetic rate determinations, 238(SER) mutant
Experimental: (§1) The fluorogenic β-lactamase substrates of the invention were tested for their ability to be hydrolyzed by β-lactamase with release of the fluorescent moiety. The kinetics of hydrolysis were compared to the kinetics of hydrolysis of nitrocefin. The two fluorogenic substrates tested were hydrolyzed using three mutant β-lactamases found in cephem resistant bacteria to compare the rate of hydrolysis with the wildtype enzyme, TEM-1 (Ambler. Phil. Trans. R. Soc. Lond. 289: 321 (1980); Sougakoff et al. Reviews of Infectious Diseases 10: 879 (1988)).
(§2) Nitrocefin kinetics were determined using a Hewlett-Packard 854A spectrophotometer with Chem Station programing, Hewlett-Packard Company Scientific Instruments Division (Palo Alto, Calif.). The data were fit to an unweighted Michaelis-Menten equation using the non-linear data regression package ENZFITTER (Elsevier-BIOSOFT, Cambridge, United Kingdom). The buffer used for all dilutions was 9:1 (50 mM phosphate buffer pH 7.2: DMSO), designated buffer A. The rate of hydrolysis for nitrocefin was determined at a range of 504-514 nm for 300 sec. […] Rates were determined using from 1-0.004 mL of nitrocefin solution diluted to 1 mL total with buffer A. Rate determining experiments were done using 9 different concentrations of the nitrocefin solution and a 1:25 dilution of each enzyme in buffer A.
(§3) Fluorescence kinetics were determined on a Perkin-Elmer LS-5 fluorescence spectrometer Perkin-Elmer Corp. (Norwalk, Conn.) for duration of 300 sec. […] Rates were determined using the following solutions: a) 10.8 mg cephalothin AMC carbamate dissolved in mL of DMSO diluted to 15 mL with buffer A, and b) 11.9 mg cefotaxime AMC carbamate dissolved in 1 mL DMSO diluted to 15 mL with buffer A. For each experiment 0.1 mL of substrate solution was diluted to 3 mL with buffer A. To this was added 0.03 mL of enzyme solution containing (25:1 dilution of the enzyme in buffer A). Fluorescence was read for 300 sec. The rates were determined for both substrates at this concentration for all enzymes tested.

[2] = biological target: 237(SER) mutant β-lactamase (Escherichia coli, UniProt P62593, A235S); assay: Kinetic rate determinations, 237(SER) mutant
Experimental: as §1, §2, §3

[3] = biological target: wildtype enzyme, TEM-1 β-lactamase (Escherichia coli, UniProt P62593); assay: Kinetic rate determinations, wild type enzyme; settings: 300 sec, ranking among enzymes; for rate of cleavage (hydrolysis) of fluorogenic substrate: wild type enzyme, fluorescence 365/440 nm
Experimental: as §1, §2, §3

[4] = biological target: 104(LYS) mutant β-lactamase (Escherichia coli, UniProt P62593, E102K); assay: Kinetic rate determinations, 104(LYS) mutant
Experimental: as §1, §2, §3

β-lactamase = assay: Cleavage of chromogenic substrates, diazonium salt added to reaction mixture; settings: releases 3-aminoindole
Excerpt: Cleavage of the β-lactam ring of cefotaxime indole carbamate or cephalothin indole carbamate produces a cascade of electron migration which releases 3-aminoindole.

[5] = system: β-lactamase (wild type and all mutant enzymes); assay: Kinetic rate determinations, fluorogenic substrates, all enzymes; settings: by the wild type and all mutant enzymes
Experimental: as §1
Fluorescence kinetics were determined on a Perkin-Elmer LS-5 fluorescence spectrometer Perkin-Elmer Corp. (Norwalk, Conn.) for duration of 300 sec. Excitation and emission wavelengths were set to 365 and 440 nm with slits of 10 and 3 nm, respectively. Buffer A was used for all dilutions. […] Rates were determined using the following solutions: a) 10.8 mg cephalothin AMC carbamate dissolved in mL of DMSO diluted to 15 mL with buffer A, and b) 11.9 mg cefotaxime AMC carbamate dissolved in 1 mL DMSO diluted to 15 mL with buffer A. For each experiment 0.1 mL of substrate solution was diluted to 3 mL with buffer A. To this was added 0.03 mL of enzyme solution containing (25:1 dilution of the enzyme in buffer A). Fluorescence was read for 300 sec. The rates were determined for both substrates at this concentration for all enzymes tested.

## CO/N=C(\C(=O)N[C@@H]1C(=O)N2C(C(=O)O)=C(COC(=O)Nc3ccc4c(C)cc(=O)oc4c3)CS[C@H]12)c1csc(N)n1 [cefotaxime AMC carbamate, Cefotaxime AMC Carbamate]
[1]; 238(SER) mutation, fluorescence
  increase in the rate of hydrolysis in comparison to wild type β-lactamase: greater than 100%
[2]; fluorescence
  increase in hydrolysis rate in comparison to wild type β-lactamase: 60%
[3]
  rate of cleavage (hydrolysis) of fluorogenic substrate: cleaved most slowly
[4]; 104(LYS) mutation, fluorescence
  increase in the rate of hydrolysis in comparison to wild type β-lactamase: greater than 100%

## CO/N=C(\C(=O)N[C@@H]1C(=O)N2C(C(=O)O)=C(COC(=O)Nc3c[nH]c4ccccc34)CS[C@H]12)c1csc(N)n1 [cefotaxime indole carbamate, Cefotaxime Indole Carbamate]
β-lactamase
  product after cleavage with β-lactamase and addition of various diazonium salts: produced a colored precipitate

## Cc1cc(=O)oc2cc(NC(=O)OCC3=C(C(=O)O)N4C(=O)[C@@H](NC(=O)Cc5cccs5)[C@H]4SC3)ccc12 [cephalothin AMC carbamate, Cephalothin AMC Carbamate]
[1]; 238(SER) mutant, fluorescence 365/440 nm, 300 sec, ranking among enzymes
  rate of cleavage (hydrolysis) of fluorogenic substrate: most slowly
[2]; fluorescence 365/440 nm, 300 sec, ranking among enzymes
  rate of cleavage (hydrolysis) of fluorogenic substrate: cleaved fastest
[5]
  rate of cleavage compared between the two fluorogenic substrates: cleaved faster than the cefotaxime AMC carbamate
[3]
  rate of cleavage (hydrolysis) of fluorogenic substrate: followed closely by the wild type enzyme
[4]; 104(LYS) mutant, fluorescence 365/440 nm, 300 sec
  rate of cleavage relative to that of the 237(SER) enzyme: about half that of the 237(SER) enzyme

## O=C(Cc1cccs1)N[C@@H]1C(=O)N2C(C(=O)O)=C(COC(=O)Nc3c[nH]c4ccccc34)CS[C@H]12 [cephalothin indole carbamate, Cephalothin Aminoindole Carbamate]
β-lactamase
  product after cleavage with β-lactamase and addition of various diazonium salts: produced a colored precipitate

## O=C(Cc1cccs1)N[C@@H]1C(=O)N2C(C(=O)O)=C(/C=C/c3ccc([N+](=O)[O-])cc3[N+](=O)[O-])CS[C@H]12 [nitrocefin, Nitrocefin, reference compound]
[1]; 238(SER) mutant, spectrophotometric 504-514 nm, 300 sec, ranking among enzymes
  rate of hydrolysis for nitrocefin: then the 104(LYS) and 238(SER) mutants
[2]; spectrophotometric 504-514 nm, 300 sec, ranking among enzymes
  rate of hydrolysis for nitrocefin: fastest
[3]; wild type, spectrophotometric 504-514 nm
  rate of hydrolysis for nitrocefin: followed by wild type
[4]; 104(LYS) mutant, spectrophotometric 504-514 nm, 300 sec, ranking among enzymes
  rate of hydrolysis for nitrocefin: then the 104(LYS) and 238(SER) mutants
